Residues, ends and D or L forms follow the SMILES beside them.
Key:
[1] = pH-stability profile of candidate peptides (percent degradant peak area by HPLC); conditions: for stability (in words): single peptide, aqueous buffer, pH 6 to pH 8, development of DPII-22.14; for solution stability in equal concentration combination: 3, 2 and 1 mg/ml per peptide, 24 hours at about 5° C. and about 22° C., common window within pH 6 to pH 8
Experimental: The concentration of filtered peptide solutions was determined by HPLC analysis. In this experiment, the solubility of peptide at each pH is defined as the amount of peptide remaining in solution after filtration through a membrane filter having a 0.2 micrometer pore size. The extent of degradation of peptides was estimated by calculating the percent of total degradant peak area over the total peak area.

[2] = pH-solubility profile of candidate peptides (HPLC of filtrate); assay type: physicochemical; conditions: for solubility (in words, against the superior solubility standard of 3 mg/ml): development of DPII-22.14 from DpII-22; for solubility thermodynamic at 24 h: at a pH in the pH range of pH 6 to pH 8, 50 mM sodium phosphate, about 22° C.
Experimental: Stock solution A: 0.66 g […] of monobasic sodium phosphate monohydrate U.S.P. and 50 mg EDTA disodium dihydrate, U.S.P. were dissolved in 100 mL of WFI. The solution was filtered through a 0.2 micron filter
Stock solution B: 0.71 g […] of dibasic sodium phosphate U.S.P. were disolved in 100 ml WFI. The solution was filtered through a 0.2 micron filter.
Dispersions A and B were sonicated for 2 minutes for good homogeneity. A small volume was pipetted from each dispersion into a labeled eppendoff vial according to the following volume ratio:
The resultant solutions/suspensions were stored in the dark at about 22° C.±2 for 24 hours without agitation. The solutions were filtered and filtrates were analyzed for pH and peptide concentration.

CC[C@H](C)[C@H](NC(=O)[C@H](CO)NC(=O)[C@H](C)NC(=O)[C@H](CCCCN)NC(=O)[C@@H](NC(=O)[C@H](CCC(=O)O)NC(=O)[C@@H](NC(=O)[C@H](CCCCN)NC(=O)[C@H](C)NC(=O)[C@@H](NC(=O)[C@H](CCCCN)NC(=O)[C@@H](NC(=O)[C@H](CC(N)=O)NC(=O)[C@H](CCC(N)=O)NC(=O)[C@H](CC(N)=O)NC(=O)[C@H](C)NC(=O)[C@H](CCC(=O)O)NC(=O)[C@H](Cc1ccccc1)NC(=O)[C@@H](NC(=O)[C@H](C)NC(=O)[C@H](CCC(=O)O)NC(=O)[C@H](CC(C)C)NC(=O)[C@@H](N)CCC(N)=O)C(C)C)[C@@H](C)O)[C@@H](C)O)[C@@H](C)CC)[C@@H](C)CC)C(=O)N[C@@H](CC(=O)O)C(=O)NCC(=O)N[C@@H](CC(C)C)C(=O)N[C@@H](CCC(=O)O)C(=O)N[C@H](C(=O)O)C(C)C [DP II-22] (H-QLEAVFEANQNTKTAKIEIKASIDGLEV-OH; N-terminus and C-terminus assumed)
stability (in words) [1]: stable | stability (in words) ([1]; listed as QLEAVFEANQNTKTAKIEIKASIDGLEV): nor did it meet the stability requirement | solubility (in words, against the superior solubility standard of 3 mg/ml) [2]: did not meet the “superior solubility” requirement of 3 mg/ml

CC[C@H](C)[C@H](NC(=O)[C@H](C)NC(=O)[C@H](CS)NC(=O)[C@H](C)NC(=O)[C@H](CC(C)C)NC(=O)[C@@H](NC(=O)CNC(=O)[C@H](CC(=O)O)NC(=O)[C@H](CC(=O)O)NC(=O)CNC(=O)[C@H](CCSC)NC(=O)[C@@H](NC(=O)[C@H](CCCCN)NC(=O)[C@@H](NC(=O)[C@@H](NC(=O)[C@H](CCC(=O)O)NC(=O)[C@H](CCC(=O)O)NC(=O)[C@@H](N)CC(=O)O)[C@@H](C)O)C(C)C)C(C)C)C(C)C)C(=O)N[C@@H](C)C(=O)N[C@H](C(=O)N[C@@H](Cc1c[nH]cn1)C(=O)N[C@@H](C)C(=O)N[C@@H](CCCCN)C(=O)N[C@H](C(=O)N[C@@H](CCCNC(=N)N)C(=O)N[C@@H](CC(=O)O)C(=O)N[C@@H](CCC(=O)O)C(=O)N[C@@H](CCC(=O)O)C(=O)O)[C@@H](C)CC)[C@@H](C)O [DP II-25.15] (H-DEETVKVMGDDGVLACAIATHAKIRDEE-OH; N-terminus and C-terminus assumed)
solution stability in equal concentration combination [1]: acceptable solution stability | solubility thermodynamic at 24 h [2]: > 3000 µg/mL

CC[C@H](C)[C@H](NC(=O)[C@H](CCC(=O)O)NC(=O)[C@H](C)NC(=O)[C@@H]1CCCN1C(=O)[C@H](C)NC(=O)[C@H](CC(N)=O)NC(=O)CNC(=O)[C@H](CC(N)=O)NC(=O)[C@@H](NC(=O)[C@@H](N)CO)[C@@H](C)CC)C(=O)N[C@@H](CC(=O)O)C(=O)N[C@@H](CC(C)C)C(=O)N[C@@H](CCCNC(=N)N)C(=O)N[C@@H](CCC(N)=O)C(=O)N[C@@H](CCSC)C(=O)N[C@@H](CCCNC(=N)N)C(=O)N[C@H](C(=O)N[C@H](C(=O)N[C@H](C(=O)N1CCC[C@H]1C(=O)N[C@H](C(=O)N[C@@H](CCCNC(=N)N)C(=O)N[C@@H](CCSC)C(=O)N[C@@H](CCC(N)=O)C(=O)O)[C@@H](C)CC)[C@@H](C)O)C(C)C)[C@@H](C)O [DP I-21.2] (H-SINGNAPAEIDLRQMRTVTPIRMQ-OH; N-terminus and C-terminus assumed)
solution stability in equal concentration combination [1]: acceptable solution stability | solubility thermodynamic at 24 h [2]: > 3000 µg/mL

CC[C@H](C)[C@H](NC(=O)[C@H](CO)NC(=O)[C@H](C)NC(=O)[C@H](CCCCN)NC(=O)[C@@H](NC(=O)[C@H](CCC(=O)O)NC(=O)[C@@H](NC(=O)[C@H](CCCCN)NC(=O)[C@H](C)NC(=O)[C@@H](NC(=O)[C@H](CCCCN)NC(=O)[C@@H](NC(=O)[C@H](CC(N)=O)NC(=O)[C@H](CCC(N)=O)NC(=O)[C@H](CC(N)=O)NC(=O)[C@H](C)NC(=O)[C@H](CCC(=O)O)NC(=O)[C@H](Cc1ccccc1)NC(=O)[C@@H](NC(=O)[C@H](C)NC(=O)[C@H](CCC(=O)O)NC(=O)[C@H](CC(C)C)NC(=O)[C@H](CCC(N)=O)NC(=O)[C@H](CCCCN)NC(=O)[C@@H](N)CC(=O)O)C(C)C)[C@@H](C)O)[C@@H](C)O)[C@@H](C)CC)[C@@H](C)CC)C(=O)N[C@@H](CC(=O)O)C(=O)NCC(=O)N[C@@H](CC(C)C)C(=O)N[C@@H](CCC(=O)O)C(=O)N[C@H](C(=O)N[C@@H](CC(=O)O)C(=O)O)C(C)C [DP II-22.6] (H-DKQLEAVFEANQNTKTAKIEIKASIDGLEVD-OH)
stability (in words) [1]: stability improved substantially | solubility (in words, against the superior solubility standard of 3 mg/ml) [2]: solubility did not reach the standard

CC[C@H](C)[C@H](NC(=O)[C@H](CO)NC(=O)[C@H](C)NC(=O)[C@H](CCCCN)NC(=O)[C@@H](NC(=O)[C@H](CCC(=O)O)NC(=O)[C@@H](NC(=O)[C@H](CCCCN)NC(=O)[C@H](C)NC(=O)[C@@H](NC(=O)[C@H](CCCCN)NC(=O)[C@@H](NC(=O)[C@H](CC(N)=O)NC(=O)[C@H](CCC(N)=O)NC(=O)[C@H](CC(N)=O)NC(=O)[C@H](C)NC(=O)[C@H](CCC(=O)O)NC(=O)[C@H](Cc1ccccc1)NC(=O)[C@@H](NC(=O)[C@H](C)NC(=O)[C@H](CCC(=O)O)NC(=O)[C@H](CC(C)C)NC(=O)[C@H](CCC(N)=O)NC(=O)[C@@H](N)CCCCN)C(C)C)[C@@H](C)O)[C@@H](C)O)[C@@H](C)CC)[C@@H](C)CC)C(=O)N[C@@H](CC(=O)O)C(=O)NCC(=O)N[C@@H](CC(C)C)C(=O)N[C@@H](CCC(=O)O)C(=O)N[C@H](C(=O)N[C@@H](CCCCN)C(=O)O)C(C)C [DP II-22.2] (H-KQLEAVFEANQNTKTAKIEIKASIDGLEVK-OH)
stability (in words) [1]: stability improved substantially | solubility (in words, against the superior solubility standard of 3 mg/ml) [2]: solubility did not reach the standard

CC(C)[C@H](NC(=O)CNC(=O)[C@H](CCC(=O)O)NC(=O)[C@H](CCC(=O)O)NC(=O)[C@@H](N)CC(=O)O)C(=O)N[C@H](C(=O)N[C@@H](CCC(N)=O)C(=O)N[C@@H](CCC(=O)O)C(=O)N[C@@H](CO)C(=O)N[C@@H](Cc1ccc(O)cc1)C(=O)N[C@@H](Cc1ccc(O)cc1)C(=O)N[C@@H](CCCNC(=N)N)C(=O)N[C@@H](Cc1ccc(O)cc1)C(=O)N[C@H](C(=O)N[C@@H](C)C(=O)N[C@@H](CCCNC(=N)N)C(=O)N[C@@H](CCC(=O)O)C(=O)N[C@@H](CCC(N)=O)C(=O)N[C@@H](CO)C(=O)N[C@@H](CS)C(=O)N[C@@H](CCCNC(=N)N)C(=O)N[C@@H](CCCNC(=N)N)C(=O)N1CCC[C@H]1C(=O)N[C@@H](CC(N)=O)C(=O)N[C@@H](C)C(=O)N[C@@H](CCC(=O)O)C(=O)O)C(C)C)C(C)C [DP I-23.31] (H-DEEGVVQESYYRYVAREQSCRRPNAE-OH; N-terminus and C-terminus assumed)
solution stability in equal concentration combination [1]: acceptable solution stability | solubility thermodynamic at 24 h [2]: > 3000 µg/mL

CC[C@H](C)[C@H](NC(=O)CNC(=O)[C@H](CCC(=O)O)NC(=O)[C@@H](N)CC(=O)O)C(=O)N[C@@H](CCCCN)C(=O)N[C@@H](CC(=O)O)C(=O)N[C@@H](CC(C)C)C(=O)N[C@@H](CC(=O)O)C(=O)N[C@@H](C)C(=O)N[C@@H](Cc1ccccc1)C(=O)N[C@@H](CCCNC(=N)N)C(=O)N[C@@H](Cc1c[nH]cn1)C(=O)N[C@@H](Cc1ccc(O)cc1)C(=O)N[C@@H](CC(=O)O)C(=O)NCC(=O)N[C@@H](CCCNC(=N)N)C(=O)N[C@H](C(=O)N[C@H](C(=O)N[C@H](C(=O)N[C@@H](CCC(N)=O)C(=O)N[C@@H](CCCNC(=N)N)C(=O)N[C@@H](CC(=O)O)C(=O)N[C@@H](CC(N)=O)C(=O)NCC(=O)N[C@@H](Cc1ccc(O)cc1)C(=O)N[C@@H](CCC(=O)O)C(=O)O)[C@@H](C)CC)[C@@H](C)CC)[C@@H](C)O [DP I-26.6] (H-DEGIKDLDAFRHYDGRTIIQRDNGYE-OH; N-terminus and C-terminus assumed)
solution stability in equal concentration combination [1]: acceptable solution stability | solubility thermodynamic at 24 h [2]: > 3000 µg/mL

CC[C@H](C)[C@H](NC(=O)[C@H](CCC(=O)O)NC(=O)[C@@H](NC(=O)[C@H](CCCCN)NC(=O)[C@H](C)NC(=O)[C@@H](NC(=O)[C@H](CCCCN)NC(=O)[C@@H](NC(=O)[C@H](CC(N)=O)NC(=O)[C@H](CCC(N)=O)NC(=O)[C@H](CC(N)=O)NC(=O)[C@H](C)NC(=O)[C@H](CCC(=O)O)NC(=O)[C@H](Cc1ccccc1)NC(=O)[C@@H](NC(=O)[C@H](C)NC(=O)[C@H](CCC(=O)O)NC(=O)[C@H](CC(C)C)NC(=O)[C@H](CCC(N)=O)NC(=O)[C@H](CCCCN)NC(=O)[C@@H](N)CC(=O)O)C(C)C)[C@@H](C)O)[C@@H](C)O)[C@@H](C)CC)C(=O)N[C@@H](CCCCN)C(=O)N[C@@H](C)C(=O)N[C@@H](CO)C(=O)N[C@H](C(=O)N[C@@H](CC(=O)O)C(=O)N[C@@H](CCC(=O)O)C(=O)O)[C@@H](C)CC [DP II-22.5] (H-DKQLEAVFEANQNTKTAKIEIKASIDE-OH; N-terminus and C-terminus assumed)
solubility (in words, against the superior solubility standard of 3 mg/ml) [2]: very soluble

From patent publication US7288256B1, “T cell epitopes of the major allergens from dermatophagoides (house dust mite)” (Merck Patent GmbH, priority 1991, dated 2007)
